# Results as given in patent US8957078B2, “Compounds useful as inhibitors of ATR kinase” (Vertex Pharmaceuticals Incorporated, priority 2013, dated 2015).
# pKi: −log10 of the molar value.
# Columns and labels:
# [1] = target: T1, ATR kinase (full-length ATR) (Homo sapiens, UniProt Q13535); assay: ATR Inhibition Assay (radioactive-phosphate incorporation); type: biochemical; conditions: Ki(app); 5 nM full-length ATR, 10 μM ATP, 800 μM target peptide, 25° C.
# T1 construct: in the presence of 5 nM full-length ATR
# Experimental: Compounds were screened for their ability to inhibit ATR kinase using a radioactive-phosphate incorporation assay. Assays were carried out in a mixture of 50 mM Tris/HCl (pH 7.5), 10 mM MgCl2 and 1 mM DTT. Final substrate concentrations were 10 μM [γ-33P]ATP (3 mCi 33P ATP/mmol ATP, Perkin Elmer) and 800 μM target peptide (ASELPASQPQPFSAKKK (SEQ. ID NO: 1)).
# Assays were carried out at 25° C. in the presence of 5 nM full-length ATR. An assay stock buffer solution was prepared containing all of the reagents listed above, with the exception of ATP and the test compound of interest. 13.5 μL of the stock solution was placed in a 96 well plate followed by addition of 2 μL of DMSO stock containing serial dilutions of the test compound (typically starting from a final concentration of 15 μM with 3-fold serial dilutions) in duplicate (final DMSO concentration 7%). The plate was pre-incubated for 10 minutes at 25° C. and the reaction initiated by addition of 15 μL [γ-33P]ATP (final concentration 10 μM).
# The reaction was stopped after […] by the addition of 30 μL 0.1M phosphoric acid containing 2 mM ATP. A multiscreen phosphocellulose filter 96-well plate (Millipore, Cat no. MAPHN0B50) was pretreated with 100 μL 0.2M phosphoric acid prior to the addition of 45 μL of the stopped assay mixture. The plate was washed with 5×200 μL 0.2M phosphoric acid. After drying, 100 μL Optiphase ‘SuperMix’ liquid scintillation cocktail (Perkin Elmer) was added to the well prior to scintillation counting (1450 Microbeta Liquid Scintillation Counter, Wallac).
# After removing mean background values for all of the data points, Ki(app) data were calculated from non-linear regression analysis of the initial rate data using the Prism software package (GraphPad Prism version 3.0cx for Macintosh, GraphPad Software, San Diego Calif., USA).
# [2] = tested on: HCT116 colorectal cancer cells; assay: Cisplatin Sensitization Assay (96 h cell viability MTS); type: cell-based; conditions: concentration of compound required to reduce the IC50 of Cisplatin alone by at least 3-fold; HCT116, 96 h MTS
# Experimental: Compounds can be screened for their ability to sensitize HCT116 colorectal cancer cells to Cisplatin using a 96 h cell viability (MTS) assay. […] Compounds and Cisplatin are then both added simultaneously to the cell media in 2-fold serial dilutions from a top final concentration of 10 μM as a full matrix of concentrations in a final cell volume of 200 μl, and the cells are then incubated at 37° C. in 5% CO2. After 96 h, 40 μl of MTS reagent (Promega G358a) is added to each well and the cells are incubated for 1 h at 37° C. in 5% CO2. Finally, absorbance is measured at 490 nm using a SpectraMax Plus 384 reader (Molecular Devices) and the concentration of compound required to reduce the IC50 of Cisplatin alone by at least 3-fold (to 1 decimal place) can be reported.
# T1 sequence (Q13535 whole entry): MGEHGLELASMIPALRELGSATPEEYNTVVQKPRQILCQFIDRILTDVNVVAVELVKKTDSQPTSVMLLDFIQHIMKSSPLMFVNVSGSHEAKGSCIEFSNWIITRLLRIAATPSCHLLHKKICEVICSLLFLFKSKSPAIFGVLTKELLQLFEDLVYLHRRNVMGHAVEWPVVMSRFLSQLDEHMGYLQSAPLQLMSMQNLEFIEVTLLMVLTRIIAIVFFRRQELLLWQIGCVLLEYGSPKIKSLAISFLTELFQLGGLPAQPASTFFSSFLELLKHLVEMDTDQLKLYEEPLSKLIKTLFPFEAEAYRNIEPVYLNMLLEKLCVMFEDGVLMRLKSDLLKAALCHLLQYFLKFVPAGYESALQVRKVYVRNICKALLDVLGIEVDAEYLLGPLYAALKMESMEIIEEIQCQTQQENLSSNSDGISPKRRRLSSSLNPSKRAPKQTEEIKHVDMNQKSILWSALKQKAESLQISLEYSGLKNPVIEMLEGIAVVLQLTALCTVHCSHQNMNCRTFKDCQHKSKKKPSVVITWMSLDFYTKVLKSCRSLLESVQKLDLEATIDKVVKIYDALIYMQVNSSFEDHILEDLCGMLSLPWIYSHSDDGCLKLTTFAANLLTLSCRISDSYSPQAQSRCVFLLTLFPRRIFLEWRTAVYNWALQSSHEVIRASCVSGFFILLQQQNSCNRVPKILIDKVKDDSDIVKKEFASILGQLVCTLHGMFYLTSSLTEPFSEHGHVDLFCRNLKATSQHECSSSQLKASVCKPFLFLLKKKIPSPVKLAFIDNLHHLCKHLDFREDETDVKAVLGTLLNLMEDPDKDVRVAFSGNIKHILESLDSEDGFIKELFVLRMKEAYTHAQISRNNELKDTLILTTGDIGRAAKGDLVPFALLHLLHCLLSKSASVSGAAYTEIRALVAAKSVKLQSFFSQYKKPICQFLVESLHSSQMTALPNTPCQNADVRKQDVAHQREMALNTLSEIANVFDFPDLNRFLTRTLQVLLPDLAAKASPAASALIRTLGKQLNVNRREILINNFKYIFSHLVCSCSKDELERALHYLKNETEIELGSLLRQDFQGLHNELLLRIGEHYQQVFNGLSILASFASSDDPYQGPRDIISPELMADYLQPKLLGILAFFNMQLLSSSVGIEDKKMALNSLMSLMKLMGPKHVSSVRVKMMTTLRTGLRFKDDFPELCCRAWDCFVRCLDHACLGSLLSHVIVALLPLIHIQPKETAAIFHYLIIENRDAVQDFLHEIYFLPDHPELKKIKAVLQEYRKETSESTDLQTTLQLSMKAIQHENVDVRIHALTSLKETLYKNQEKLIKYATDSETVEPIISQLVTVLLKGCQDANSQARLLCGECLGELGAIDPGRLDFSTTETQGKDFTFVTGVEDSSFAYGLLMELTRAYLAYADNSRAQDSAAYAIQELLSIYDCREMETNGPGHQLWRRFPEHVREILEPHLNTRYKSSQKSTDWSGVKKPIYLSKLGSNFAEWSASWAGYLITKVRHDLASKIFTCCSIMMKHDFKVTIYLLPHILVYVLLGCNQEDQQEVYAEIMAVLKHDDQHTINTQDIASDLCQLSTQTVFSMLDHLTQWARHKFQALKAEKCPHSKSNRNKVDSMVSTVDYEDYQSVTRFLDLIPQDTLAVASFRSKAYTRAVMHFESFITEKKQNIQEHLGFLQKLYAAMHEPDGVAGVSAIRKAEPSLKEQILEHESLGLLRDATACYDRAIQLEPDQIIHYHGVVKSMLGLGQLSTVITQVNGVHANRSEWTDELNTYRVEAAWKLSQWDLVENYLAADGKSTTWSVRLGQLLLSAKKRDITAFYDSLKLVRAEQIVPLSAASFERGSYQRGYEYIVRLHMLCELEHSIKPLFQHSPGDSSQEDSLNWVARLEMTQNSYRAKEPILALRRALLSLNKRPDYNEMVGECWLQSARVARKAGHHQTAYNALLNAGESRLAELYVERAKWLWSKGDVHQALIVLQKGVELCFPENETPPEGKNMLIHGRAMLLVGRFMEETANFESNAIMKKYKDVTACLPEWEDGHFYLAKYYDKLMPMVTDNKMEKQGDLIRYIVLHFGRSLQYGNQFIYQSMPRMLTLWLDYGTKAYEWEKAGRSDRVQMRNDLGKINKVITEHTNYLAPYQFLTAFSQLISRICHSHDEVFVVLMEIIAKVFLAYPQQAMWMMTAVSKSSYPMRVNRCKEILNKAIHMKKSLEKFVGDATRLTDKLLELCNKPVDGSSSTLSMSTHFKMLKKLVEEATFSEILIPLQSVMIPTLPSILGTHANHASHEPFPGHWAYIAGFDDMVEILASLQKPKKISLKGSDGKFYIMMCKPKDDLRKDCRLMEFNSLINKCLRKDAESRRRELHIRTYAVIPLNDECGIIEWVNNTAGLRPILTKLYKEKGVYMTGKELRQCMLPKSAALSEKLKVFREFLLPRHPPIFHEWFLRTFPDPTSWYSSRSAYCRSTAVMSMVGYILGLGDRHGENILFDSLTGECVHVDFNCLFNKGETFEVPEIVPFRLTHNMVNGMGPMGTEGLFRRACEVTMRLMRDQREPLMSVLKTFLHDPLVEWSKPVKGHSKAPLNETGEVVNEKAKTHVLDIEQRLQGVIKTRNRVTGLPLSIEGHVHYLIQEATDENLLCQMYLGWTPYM
Structure (SMILES),pKi [1],Cisplatin Sensitization Assay [2]
"Cc1ncccc1-c1c(C)nsc1NC(=O)c1c(N)nn2cc(F)cnc12 [I-E-1, 2-amino-6-fluoro-N-(3-methyl-4-(2-methylpyridin-3-yl)isothiazol-5-yl)pyrazolo[1,5-a]pyrimidine-3-carboxamide]",> 8.00,+++ (Compounds with a Cisplatin sensitization value of <0.02 μM are marked with “+++.”)
"Cc1nsc(NC(=O)c2c(N)nn3cc(F)cnc23)c1-n1cccn1 [I-E-10, 2-amino-6-fluoro-N-(3-methyl-4-(1H-pyrazol-1-yl)isothiazol-5-yl)pyrazolo[1,5-a]pyrimidine-3-carboxamide]",> 8.00,+++ (Compounds with a Cisplatin sensitization value of <0.02 μM are marked with “+++.”)
"Cc1cc(-c2c(C)nsc2NC(=O)c2c(N)nn3cc(F)cnc23)n(C)n1 [I-E-16, 2-amino-N-(4-(1,3-dimethyl-1H-pyrazol-5-yl)-3-methylisothiazol-5-yl)-6-fluoropyrazolo[1,5-a]pyrimidine-3-carboxamide]",6.00 to 8.00,+++ (Compounds with a Cisplatin sensitization value of <0.02 μM are marked with “+++.”)
"Cc1nsc(NC(=O)c2c(N)nn3cc(F)cnc23)c1C1=CCOCC1 [I-E-4, 2-amino-N-(4-(3,6-dihydro-2H-pyran-4-yl)-3-methylisothiazol-5-yl)-6-fluoropyrazolo[1,5-a]pyrimidine-3-carboxamide]",> 8.00,+++ (Compounds with a Cisplatin sensitization value of <0.02 μM are marked with “+++.”)
"Cc1ncccc1-c1cnccc1NC(=O)c1c(N)nn2cc(F)cnc12 [I-C-5, 2-amino-6-fluoro-N-(2′-methyl-[3,3′-bipyridin]-4-yl)pyrazolo[1,5-a]pyrimidine-3-carboxamide]",6.00 to 8.00,++ (Compounds with a Cisplatin sensitization value >0.02 μM but <0.2 μM are marked with “++.”)
"COc1ncncc1NC(=O)c1c(N)nn2cc(CC#N)cnc12 [I-A-17, 2-amino-6-(cyanomethyl)-N-(4-methoxypyrimidin-5-yl)pyrazolo[1,5-a]pyrimidine-3-carboxamide]",6.00 to 8.00,++ (Compounds with a Cisplatin sensitization value >0.02 μM but <0.2 μM are marked with “++.”)
"Nc1nn2cc(F)cnc2c1C(=O)Nc1cncn1-c1ccccc1 [I-D-2, 2-amino-6-fluoro-N-(1-phenyl-1H-imidazol-5-yl)pyrazolo[1,5-a]pyrimidine-3-carboxamide]",6.00 to 8.00,+++ (Compounds with a Cisplatin sensitization value of <0.02 μM are marked with “+++.”)
"Cc1ncc(NC(=O)c2c(N)nn3cc(F)cnc23)n1-c1ccccc1 [I-D-6, 2-amino-6-fluoro-N-(2-methyl-1-phenyl-1H-imidazol-5-yl)pyrazolo[1,5-a]pyrimidine-3-carboxamide]",6.00 to 8.00,+++ (Compounds with a Cisplatin sensitization value of <0.02 μM are marked with “+++.”)
"Cc1nsc(NC(=O)c2c(N)nn3cc(F)cnc23)c1-c1cccnc1 [I-E-3, 2-amino-6-fluoro-N-(3-methyl-4-(pyridin-3-yl)isothiazol-5-yl)pyrazolo[1,5-a]pyrimidine-3-carboxamide]",6.00 to 8.00,+++ (Compounds with a Cisplatin sensitization value of <0.02 μM are marked with “+++.”)
"COc1cnccc1NC(=O)c1c(N)nn2ccc(C(F)(F)F)nc12 [I-C-4, 2-amino-N-(3-methoxypyridin-4-yl)-5-(trifluoromethyl)pyrazolo[1,5-a]pyrimidine-3-carboxamide]",6.00 to 8.00,

# Further lines, with some results ahead:
pKi [1],Structure (SMILES),Cisplatin Sensitization Assay [2]
6.00 to 8.00,"Nc1nn2cc(F)cnc2c1C(=O)Nc1ccncc1N1CCC(C(=O)N2CCN3CCC2CC3)CC1 [I-C-7, N-(3-(4-(1,4-diazabicyclo[3.2.2]nonane-4-carbonyl)piperidin-1-yl)pyridin-4-yl)-2-amino-6-fluoropyrazolo[1,5-a]pyrimidine-3-carboxamide]",+++ (Compounds with a Cisplatin sensitization value of <0.02 μM are marked with “+++.”)
6.00 to 8.00,"CN1CCN(C(=O)C2CCN(c3cnccc3NC(=O)c3c(N)nn4cc(F)cnc34)CC2)CC1 [I-C-3, 2-amino-6-fluoro-N-(3-(4-(4-methylpiperazine-1-carbonyl)piperidin-1-yl)pyridin-4-yl)pyrazolo[1,5-a]pyrimidine-3-carboxamide]",++ (Compounds with a Cisplatin sensitization value >0.02 μM but <0.2 μM are marked with “++.”)
6.00 to 8.00,"Cc1nncc(NC(=O)c2c(N)nn3cc(F)cnc23)c1N1CCC(C(=O)N2CCN(C)CC2)CC1 [I-B-14, 2-amino-6-fluoro-N-(6-methyl-5-(4-(4-methylpiperazine-1-carbonyl)piperidin-1-yl)pyridazin-4-yl)pyrazolo[1,5-a]pyrimidine-3-carboxamide]",+++ (Compounds with a Cisplatin sensitization value of <0.02 μM are marked with “+++.”)
6.00 to 8.00,"Nc1nn2cc(F)cnc2c1C(=O)Nc1ccncc1N1CCCC1 [I-C-11, 2-amino-6-fluoro-N-(3-(pyrrolidin-1-yl)pyridin-4-yl)pyrazolo[1,5-a]pyrimidine-3-carboxamide]",++ (Compounds with a Cisplatin sensitization value >0.02 μM but <0.2 μM are marked with “++.”)
6.00 to 8.00,"Cc1nsc(NC(=O)c2c(N)nn3cc(F)cnc23)c1C1CC1 [I-E-2, 2-amino-N-(4-cyclopropyl-3-methylisothiazol-5-yl)-6-fluoropyrazolo[1,5-a]pyrimidine-3-carboxamide]",+++ (Compounds with a Cisplatin sensitization value of <0.02 μM are marked with “+++.”)
6.00 to 8.00,"CN1CCN(Cc2ccc(-c3cnncc3NC(=O)c3c(N)nn4cc(F)cnc34)cc2)CC1 [I-B-7, 2-amino-6-fluoro-N-(5-(4-((4-methylpiperazin-1-yl)methyl)phenyl)pyridazin-4-yl)pyrazolo[1,5-a]pyrimidine-3-carboxamide]",+++ (Compounds with a Cisplatin sensitization value of <0.02 μM are marked with “+++.”)
> 8.00,"Cc1nsc(NC(=O)c2c(N)nn3cc(F)cnc23)c1CN1CCCC1 [I-E-17, 2-amino-6-fluoro-N-(3-methyl-4-(pyrrolidin-1-ylmethyl)isothiazol-5-yl)pyrazolo[1,5-a]pyrimidine-3-carboxamide]",+++ (Compounds with a Cisplatin sensitization value of <0.02 μM are marked with “+++.”)
6.00 to 8.00,"Nc1nn2cc(F)cnc2c1C(=O)Nc1ccncc1N1CCC(C(=O)N2CCN(C3COC3)CC2)CC1 [I-C-9, 2-amino-6-fluoro-N-(3-(4-(4-(oxetan-3-yl)piperazine-1-carbonyl)piperidin-1-yl)pyridin-4-yl)pyrazolo[1,5-a]pyrimidine-3-carboxamide]",++ (Compounds with a Cisplatin sensitization value >0.02 μM but <0.2 μM are marked with “++.”)
6.00 to 8.00,"Nc1nn2cc(F)cnc2c1C(=O)Nc1cnncc1N1CCC(CN2CCC(F)(F)C2)CC1 [I-B-6, 2-amino-N-(5-(4-((3,3-difluoropyrrolidin-1-yl)methyl)piperidin-1-yl)pyridazin-4-yl)-6-fluoropyrazolo[1,5-a]pyrimidine-3-carboxamide]",+++ (Compounds with a Cisplatin sensitization value of <0.02 μM are marked with “+++.”)
6.00 to 8.00,"CN1CCN(C2CCN(c3cnncc3NC(=O)c3c(N)nn4cc(F)cnc34)CC2)CC1 [I-B-24, 2-amino-6-fluoro-N-(5-(4-(4-methylpiperazin-1-yl)piperidin-1-yl)pyridazin-4-yl)pyrazolo[1,5-a]pyrimidine-3-carboxamide]",
5.30 to 6.00,"CN1CCN(C(=O)C2CCN(c3ncncc3NC(=O)c3c(N)nn4cc(F)cnc34)CC2)CC1 [I-A-19, 2-amino-6-fluoro-N-(4-(4-(4-methylpiperazine-1-carbonyl)piperidin-1-yl)pyrimidin-5-yl)pyrazolo[1,5-a]pyrimidine-3-carboxamide]",+ (Compounds with a Cisplatin sensitization value >0.2 μM but <5 μM are marked with “+.”)
5.30 to 6.00,"Nc1nn2cc(F)cnc2c1C(=O)Nc1cnncc1N1CCCC1 [I-B-16, 2-amino-6-fluoro-N-(5-(pyrrolidin-1-yl)pyridazin-4-yl)pyrazolo[1,5-a]pyrimidine-3-carboxamide]",
